Data on 9 compounds can be found in US12038447B2 (priority 2017, dated 2024).

Read-outs that look alike come from different tables or passages of the source.

The subject of one data set is MC3T3-E1 cells. In words: Cell attachment and detachment on GRGDS functionalized rSAMs. Particulars: for average projected cell area: 5 hours; for reduction in average projected cell area on MDSA versus MBA-SAMs: absence of GRGDS 3 in the layer.
The nature of data set [1]: Critical micelle concentration from assembly kinetics, in situ ellipsometry. Format: physicochemical. Particulars: pH 9 buffer.
Data set [2] relates to human serum albumin (HSA) and lysozyme (LYZ). Kind of data set: Protein resistance of E0-6 rSAMs on MHA gold, IRAS amide I and ellipsometry. Particulars: HSA or LYZ 1 mg/mL, pH 8, rSAM on MHA gold. Format: binding.
The nature of data set [3]: Air and rinse stability of rSAMs, rinsing and drying cycles. It is filed as physicochemical. Particulars: rSAM on MHA-gold.
Data set [4] in a line: Water solubility (qualitative). It is filed as physicochemical.
A further data set addresses HA. The following applies: cited from earlier work.
Data set [5] concerns Influenza A H5N1 (A/Anhui/2005) hemagglutinin (HA). Format: binding.
Data set [6] has as its system deactivated influenza virus H5N1. Format: binding, Influenza A Virus, A/Anhui/01/2005(H5N1).
The nature of data set [7]: Fluorescence recovery after photobleaching (FRAP), lateral fluidity. Particulars: 1 mol % FAM tagged amidine in E2 on COOH quartz. Format: physicochemical.
Data set [8] can be described thus: pH titration of rinsed rSAM layers, ellipsometric thickness. It is filed as physicochemical. The following applies: on MBA SAMs.
Setting [9] is: 100 μM added to cells on XGRGDS3,filler2=0.25 on MBA SAMs, 30 minutes.

As to `N=C(N)NCCC[C@H](N)C(=O)O` [L-Arginine, reference compound], the “cell shape after addition” value in the data set on MC3T3-E1 cells (setting [9]) is given as “most of the cells remained the spread-out shape”.
Take `N=C(N)c1ccc(OCCCCCCCCCCOc2ccc(CCOCCOCCOCCOCCO)cc2)cc1` [E4, 4-(10-{4-[2-(2-{2-[2-(2-Hydroxy-ethoxy)-ethoxy]-ethoxy}-ethoxy)-ethyl]-phenoxy}-decyloxy)-benzamidine]: the “reduction in average projected cell area” value in the data set on MC3T3-E1 cells (100 μM added to cells on XGRGDS3,filler2=0.25 on MBA SAMs, 37° C., 30 minutes) is 65%. The “cell shape after addition” value in the data set on MC3T3-E1 cells (setting [9]) is “dramatic transition from a spread-out cell shape to a non-adhesive round shape”. Moreover, in the data set with MC3T3-E1 cells (XGRGDS3,filler2=0 on MDSA-SAMs), the “surface coverage by adherent cells normalized on average projected cell area” value worked out at 12% and the “average projected cell area” value is on record as 1634 μm^2. Moreover, the “reduction in average projected cell area on MDSA versus MBA-SAMs” value in the data set with MC3T3-E1 cells was “no significant differences”. Also, the “cells after replacing medium with fresh medium” value with MC3T3-E1 cells (after 100 μM exposure, fresh medium, 37° C., 24 hrs) is “retain their adhesive characteristic”. The “critical micelle concentration (CMC)” value in data set [1] is “approximately 5 μM”. Moreover, in [2], the “protein adsorption / resistance” value was “less resistant”.
For the compound `N=C(N)c1ccc(OCCCCCCCCCCOc2ccc(CCOCCOCCOCCOCCOCCOCCO)cc2)cc1` [E6, 4-{10-[4-(2-{2-[2-(2-{2-[2-(2-Hydroxy-ethoxy)-ethoxy]-ethoxy}-ethoxy)-ethoxy]-ethoxy}-ethyl)-phenoxy]-decyloxy}-benzamidine], the “decrease in layer thickness after 2 cycles of rinsing with pH 8 buffer and drying” value in data set [3] was determined as 9 Å. In addition, the “protein adsorption / resistance” value in data set [2] was “less resistant”.
Consider `CC(=O)NC1C(O)CC(OCCc2cn(CCOCCOCCc3ccc(OCCCCCCCCCCOc4ccc(C(=N)N)cc4)cc3)nn2)(C(=O)O)OC1C(O)C(O)CO` (stereo not drawn) [compound 2, 5-Acetylamino-2-[2-(1-{2-[2-(2-{4-[10-(4-carbamimidoyl-phenoxy)-decyloxy]-phenyl}-ethoxy)-ethoxy]-ethyl}-1H-[1,2,3]triazol-4-yl)-ethoxy]-4-hydroxy-6-(1,2,3-trihydroxy-propyl)-tetrahydro-pyran-2-carboxylic acid], for which the “water solubility” value in [4] is “highly water soluble”.
For the compound `Cl.N=C(N)c1ccc(OCCCCCCCCCCOc2ccc(CCO)cc2)cc1` [compound 1, Amino(4-(10-(4-(2-hydroxyethyl)phenoxy)decyloxy)phenyl)methaniminium chloride], in data set [2], the “protein adsorption / resistance” value was “most pronounced protein adsorption”. For the same compound, the “water solubility” value is “poorly water-soluble” in [4] and “poorly water soluble” in data set [4] (listed as E0).
Regarding `C=C(C(=O)CNN[C@@H](CCCNC(=N)N)C(=O)NCC(=O)N[C@@H](CC(=O)O)C(=O)N[C@@H](CO)C(=O)O)c1cn(COCCOCCc2ccc(OCCCCCCCCCCOc3ccc(C(=N)N)cc3)cc2)nn1` [GRGDS 3, (2S,5S,11S)-16-(1-((2-(4-((10-(4-carbamimidoylphenoxy)decyl)oxy)phenethoxy)ethoxy)methyl)-1H-1,2,3-triazol-4-yl)-5-(carboxymethyl)-11-(3-guanidinopropyl)-2-(hydroxymethyl)-4,7,10,15-tetraoxo-3,6,9,12,13-pentaazaheptadec-16-enoic acid], the “average projected cell area” value with MC3T3-E1 cells (XGRGDS3,filler2=0.1 on MDSA-SAMs) turned out to be 1183 μm^2; with MC3T3-E1 cells (XGRGDS3,filler2=0.25 on MDSA-SAMs), 1282 μm^2. In the data set on MC3T3-E1 cells (XGRGDS3=0-0.25, 5 hours), the “coverage of adhered cells versus amount in layer” value was “correlated with the increasing amount of GRGDS3”. The “average projected cell area versus surface without GRGDS3” value is listed as “an increase in average projected cell area” with MC3T3-E1 cells (with filler 1, XGRGDS3=0.25 on MBA SAMs); “a decrease in average projected cell area” with MC3T3-E1 cells (with filler 2, XGRGDS3=0.1 and 0.25 on MDSA SAMs). The “average projected cell area versus GRGDS density” value in the data set on MC3T3-E1 cells (with filler 1 on MDSA SAMs) and in the data set with MC3T3-E1 cells (with filler 2 on MBA SAMs) was “no distinct differences” in each case.
Consider mucin, for which, on HA (read-out: Ki of binding to HA), the Ki (commonly a dissociation constant, usually derived from enzyme kinetics or from competition with a known ligand) was 2 µM. Also, the “effect of preincubating HA with mucin on HA binding to rSAM-2” value in data set [5] is given as “effectively suppressed”. For the same compound, the “effect of mucin masking on virus adsorption to rSAM-2” value in [6] is given as “effectively suppressed”.
With `N=C(N)c1ccc(OCCCCCCCCCCOc2ccc(CCOCCOCCO)cc2)cc1` [E2, 4-[10-(4-{2-[2-(2-Hydroxy-ethoxy)-ethoxy]-ethyl}-phenoxy)-decyloxy]-benzamidine], the “diffusion coefficient from FRAP” value in [7] is “matching literature values of supported lipid bilayers”. Further, the “pH resistance of rinsed layers” value in [8] is “up to 6”. Further, the “reduction in average projected cell area on MDSA versus MBA-SAMs” value in the data set on MC3T3-E1 cells was 28%. Further, in data set [2], the “reduction of protein adsorption based on amide I band intensity” value is “more than 50%”.
Consider `CO[C@]1(C(=O)O)C[C@H](O)[C@@H](NC(C)=O)[C@H]([C@H](O)[C@H](O)CO)O1` [α-methyl sialoside], for which, at HA (read-out: Kd per SA or HA monomer unit), the Kd (commonly the free concentration of one partner at which half of the binding sites on the other are occupied at equilibrium, for simple one-to-one binding) was 2000 µM.
